Experimental data from publication PMC4912613, “A broad analysis of resistance development in the malaria parasite” (Nature Communications, 2016).

Columns and labels:
[1] = test system: NITD609-R2 (PfATP4 T418N and P990R, parent Dd2); assay: Cross-resistance EC50 assay, NITD609-R2; format: cell-based; conditions: Plasmodium falciparum, SYBR green 72 hour assay, asynchronized parasites, 96-well or 1536-well format
Text: (§1) To evaluate potential overlapping activity against known antimalarial drug targets, we performed dose-response studies with each compound against our assembled set of drug-resistant lines and their corresponding parents, in an asexual blood stage proliferation assay (Table 1). Comparisons were made to the drug-sensitive strain 3D7 when a parent was unavailable (TM90C2A, W2 and Dd2). As laboratories conducted EC50 assays with different strains and protocols, all comparisons were made between assays from the same laboratory and under the same assay conditions. Compounds displaying >5-fold EC50 shifts relative to the parent or sensitive strain were flagged as having potentially non-novel targets. Average fold shifts per strain ranged from 0.82 to 2.34, with a median of 1.23 indicating there was not common resistance to any one resistant clone. No resistance patterns were observed when classifying the compounds based on chemical structure, but this was not surprising given the diversity of compounds chosen. On the other hand, given that these confirmed compounds were derived from larger unconfirmed hit lists to which some filtration criteria may have been applied (for example, elimination of obvious dihydrofolate reductase inhibitors[32]), some[10][11][12][13] pre-existing bias may exist in the set. […]
(§2) Alternatively, a SYBR Green-based proliferation approach was used for the 72-h assay, as previously described. Briefly, a culture of either synchronized or asynchronous parasitized RBCs (0.3% parasitemia and 4% haematocrit) in screening medium (identical to supplemented medium above except no serum was added) was exposed to serial drug dilutions. Plates were incubated at 37 °C and gassed with 93% N2, 4% CO2 and 3% O2 for 72 h. Following incubation, 10 × SYBR Green I (Invitrogen; supplied in 10,000 × concentration) in lysis buffer ([…], 5 mM EDTA, 0.16% Saponin wt per vol and 1.6% Triton X vol per vol) was added to the wells and the plates were incubated overnight at room temperature before plate reading. EC50 assays were repeated three times, taking the average EC50 value from each assay set, and removing any outliers using a single iteration of Grubbs' test, eliminating values with z-scores above the critical z-value (α=0.05). The raw EC50 values for synchronized parasites assayed in a 384-well format are listed in Supplementary Data 4. The raw EC50 values for asynchronous parasites assayed in a 96 or 1536-well format are listed in Supplementary Data 5.
(§3) EC50 values for each strain were compared with those of the corresponding parent strain to determine fold-shift changes and identify resistance. To minimize the cause variance between assays, all comparisons were conducted between strains assayed under identical conditions. A one-way ANOVA followed by a Dunnet's post-test was conducted in GraphPad Prism to identify significant changes between the parent and resistant strain.

[2] = test system: ATQ-R4 (cytb M133I and L144S, parent 3D7); assay: Cross-resistance EC50 assay, ATQ-R4; format: cell-based, Plasmodium falciparum; conditions: Plasmodium falciparum, 3D7; SYBR green 72 hour assay; asynchronized parasites; 96-well or 1536-well format; ATQ-R4
Text: as §1, §2, §3

[3] = test system: GNF156R (PfCARL L830V, S1076I and M81I, parent Dd2); assay: Cross-resistance EC50 assay, GNF156R; format: cell-based; conditions: Plasmodium falciparum, SYBR green 72 hour assay, asynchronized parasites, 96-well or 1536-well format
Text: as §1, §2, §3

W2 = assay: Cross-resistance EC50 assay, W2 parent; format: cell-based, Plasmodium falciparum; conditions: for EC50: Plasmodium falciparum, 48 h, read-out: W2F6 (PARENT) Average EC50
Text: Multidrug resistance alleles, including mutations in P. falciparum chloroquine resistance transporter (pfcrt) and P. falciparum multi-drug resistance transporter 1 (pfmdr1) are very common in field isolates. Therefore, we sought to assess the degree to which pre-existing resistance alleles would contribute to a loss of potency for this diverse collection of small molecule compounds. Fifteen clones derived from three main parent lines were chosen to maximize diversity in mutated pathways and genetic backgrounds, thus representing the variety of resistance seen in the field: 3D7 (ref. [23]), W2 (ref. [24]) or Dd2 (ref. [25]). The 3D7 line originates from the clone of a Netherlands clinical isolate strain[23][26] and is generally considered to be drug sensitive, though it does convey resistance to sulfadoxine. Conversely, W2 (ref. [24], [27]) and Dd2 (ref. [25]) are multi-drug-resistant lines originating from the Indochina III/CDC isolate, which contain point mutations in pfcrt as well as amplifications in pfmdr1 and GTP cyclohydrolase.
To evaluate potential overlapping activity against known antimalarial drug targets, we performed dose-response studies with each compound against our assembled set of drug-resistant lines and their corresponding parents, in an asexual blood stage proliferation assay (Table 1). Comparisons were made to the drug-sensitive strain 3D7 when a parent was unavailable (TM90C2A, W2 and Dd2). As laboratories conducted EC50 assays with different strains and protocols, all comparisons were made between assays from the same laboratory and under the same assay conditions. Compounds displaying >5-fold EC50 shifts relative to the parent or sensitive strain were flagged as having potentially non-novel targets. Average fold shifts per strain ranged from 0.82 to 2.34, with a median of 1.23 indicating there was not common resistance to any one resistant clone. No resistance patterns were observed when classifying the compounds based on chemical structure, but this was not surprising given the diversity of compounds chosen. On the other hand, given that these confirmed compounds were derived from larger unconfirmed hit lists to which some filtration criteria may have been applied (for example, elimination of obvious dihydrofolate reductase inhibitors[32]), some[10][11][12][13] pre-existing bias may exist in the set.
The 48-h assay was carried out in a 96-well format following standard methods using the ^3H-hypoxanthine incorporation assay. The raw EC50 values corresponding to this assay can be found in Supplementary Data 3. Briefly, this assay relies on the parasite incorporation of labelled hypoxanthine that is proportional to P. falciparum growth. A culture of parasitized RBCs (0.5% parasitemia with a percentage of ring stage higher than 70% of total parasitemia, 2.0% haematocrit) in RPMI-1640, […] and 5 μM hypoxanthine was exposed to drug serial dilutions. Plates were incubated for 24 h at 37 °C, 5% CO2, 5% O2 and 90% N2. After 24 h of incubation, ^3H-hypoxanthine was added and plates were incubated for an additional 24-h period. After that, parasites were harvested on a glass fibre filter using a TOMTEC Cell Harvester 96. Filters were dried and melt-on scintillator sheets were used to determine the incorporation of ^3H-hypoxanthine. Radioactivity was measured using a microbeta counter. Data were normalized using the incorporation of the positive (parasitized RBCs without drug) and negative (same culture with artesunate at 2 μM) controls. All assays were conducted in triplicate using three independently grown cultures, and EC50 values were determined using the XLfit add-in module for Excel (version 2.3.1) from Grafit (version 5.3.1.3), where parameter h is the assay hill slope, x is the compound concentration and y is the inhibition of growth effect. The XLfit equation is: […]
Alternatively, a SYBR Green-based proliferation approach was used for the 72-h assay, as previously described. […]

[4] = test system: GNF449-R2 (PfATP4 I203L and P990R, parent Dd2); assay: Cross-resistance EC50 assay, GNF449-R2; format: cell-based; conditions: Plasmodium falciparum, SYBR green 72 hour assay, asynchronized parasites, 96-well or 1536-well format
Text: as §1, §2, §3

## CNCc1ccc2nc(-c3coc(Cc4cc(Cl)ccc4OCC(C)C)n3)[nH]c2c1.Cl.Cl [MMV026596]
[1]
  EC50: 0.206 µM
[2]
  EC50: 0.303 µM
[3]
  EC50: 0.414 µM
W2
  EC50: 645 nM
[4]
  EC50: 0.307 µM

## COc1ccc(C(=O)C2CC2c2ccc(Cl)cc2)cc1 (centres unmarked) [MMV665924]
[1]
  EC50: 1.69 µM
[2]
  EC50: 3.41 µM
[3]
  EC50: 1.17 µM
W2
  EC50: 1380 nM
[4]
  EC50: 1.29 µM

## O=C(NC(c1ccccc1)c1ccc2cccnc2c1O)c1ccccc1 (centres unmarked) [MMV666080]
[1]
  EC50: 1.19 µM
[2]
  EC50: 0.746 µM
[3]
  EC50: 0.822 µM
W2
  EC50: 3160 nM
[4]
  EC50: 1.11 µM

## Cc1nc2ccc3ccc(CNc4ccc(C(=O)CC(CCC(=O)O)C(=O)O)cc4)cc3c2c(=O)[nH]1.Cl (centres unmarked) [MMV027634]
[1]
  EC50: 0.14 µM
[2]
  EC50: 0.194 µM
[3]
  EC50: 0.229 µM
W2
  EC50: 62 nM
[4]
  EC50: 0.204 µM

## Cc1ccc(Oc2ncccc2C(=O)Cc2cccc3cccnc23)c(C)c1 [MMV020746]
[1]
  EC50: 2.14 µM
[2]
  EC50: 1.97 µM
[3]
  EC50: 3.38 µM
W2
  EC50: 247 nM
[4]
  EC50: 2.63 µM

## COc1cc(-c2nc(-c3ccccc3)c(-c3ccccc3)[nH]2)ccc1OCCN(C)C [MMV027496]
[1]
  EC50: 0.755 µM
[2]
  EC50: 0.305 µM
[3]
  EC50: 1.8 µM
W2
  EC50: 272 nM
[4]
  EC50: 2.33 µM

## CCCOCc1cc(CN2CCN(c3cccc(Cl)c3)CC2)c(O)c2ncccc12 [MMV000787]
[1]
  EC50: 1.25 µM
[2]
  EC50: 1.44 µM
[3]
  EC50: 1.63 µM
W2
  EC50: 792 nM
[4]
  EC50: 1.7 µM

## COC(=O)c1ccc(C2C3=C(O)CC(c4ccc(F)cc4)CC3=Nc3ccccc3N2C(=O)c2ccccc2)cc1 (centres unmarked) [MMV011438]
[1]
  EC50: 0.306 µM
[2]
  EC50: 0.379 µM
[3]
  EC50: 0.842 µM
W2
  EC50: 644 nM
[4]
  EC50: 0.552 µM

## FC(F)(F)c1cccc(Nc2nc3ccccc3nc2Nc2cccc(C(F)(F)F)c2)c1 [MMV665794]
[1]
  EC50: 0.321 µM
[2]
  EC50: 0.434 µM
[3]
  EC50: 0.135 µM
W2
  EC50: 181 nM
[4]
  EC50: 0.37 µM

## O=C(Nc1ccsc1C(=O)NC1CCCCC1)c1ccc(F)cc1 [MMV665939]
[1]
  EC50: 1.4 µM
[2]
  EC50: 3.73 µM
[3]
  EC50: 1.28 µM
W2
  EC50: 9880 nM
W2; loss of efficacy
  EC50 fold-shift, W2 compared with 3D7: 9.5 ×
[4]
  EC50: 2.21 µM

## Brc1ccc(Nc2nc3ccccc3nc2Nc2ccc(Br)cc2)cc1 [MMV007224]
[1]
  EC50: 0.754 µM
[2]
  EC50: 0.766 µM
[3]
  EC50: 0.712 µM
W2
  EC50: 288 nM
[4]
  EC50: 0.717 µM

## Nc1ncc(-c2cn[nH]c2)cc1-c1nc2ccc(F)cc2[nH]1 [MMV023367]
[1]
  EC50: 1.6 µM
[2]
  EC50: 1.67 µM
[3]
  EC50: 2.54 µM
W2
  EC50: 244 nM
[4]
  EC50: 2.66 µM

## OC(CNC1CCCCC1)Cn1c2ccc(I)cc2c2cc(I)ccc21 (centres unmarked) [MMV665882]
[1]
  EC50: 0.046 µM
[2]
  EC50: 0.026 µM
[3]
  EC50: 0.068 µM
W2
  EC50: 26 nM
[4]
  EC50: 0.028 µM

## Cc1ccc(S(=O)(=O)n2cc(-c3ccnc(N)c3)c3cc(Br)cnc32)cc1 [MMV024114]
[1]
  EC50: 1.86 µM
[2]
  EC50: 1.99 µM
[3]
  EC50: 2.9 µM
W2
  EC50: 1050 nM
[4]
  EC50: 3.34 µM

## CN(C)CCCN(C)C(=O)C1Cc2cc(-c3ccccc3)ccc2N1S(=O)(=O)c1ccccc1 (centres unmarked) [MMV028895]
[1]
  EC50: 2.17 µM
[2]
  EC50: 1.07 µM
[3]
  EC50: 3.92 µM
W2
  EC50: 153 nM
W2; compared with 3D7
  potency against W2 strains: maintained potency
[4]
  EC50: 2.76 µM

## Cl.c1ccc2c(NCCCCCCNc3c4c(nc5ccccc35)CCCC4)c3c(nc2c1)CCCC3 [MMV019555]
[1]
  EC50: 0.188 µM
[2]
  EC50: 0.08 µM
[3]
  EC50: 0.22 µM
W2
  EC50: 491 nM
[4]
  EC50: 0.262 µM

## COc1cc(C(=O)ON=C(N)Cc2cccc3ccccc23)cc(OC)c1OC [MMV666687]
[1]
  EC50: 0.535 µM
[2]
  EC50: 0.784 µM
[3]
  EC50: 0.611 µM
W2
  EC50: 463 nM
[4]
  EC50: 0.813 µM

## COc1cc2cc(C(=O)Nc3ccccc3)c(N)nc2cc1OC [MMV006767]
[1]
  EC50: 0.106 µM
[2]
  EC50: 2.73 µM
[3]
  EC50: 0.379 µM
W2
  EC50: 1820 nM
[4]
  EC50: 0.329 µM

## O=C(NCC(CCCN1CCC(c2c[nH]c3ccccc23)CC1)c1ccccc1)Nc1ccc(Cl)c(Cl)c1 (centres unmarked) [MMV029272]
[1]
  EC50: 0.152 µM
[2]
  EC50: 9.56 µM
[3]
  EC50: 0.332 µM
W2
  EC50: 836 nM
[4]
  EC50: 0.373 µM

## CCOc1cc2c(cc1OCC)C(c1cc(Cl)ccc1O)NCC2 (centres unmarked) [MMV000478]
[1]
  EC50: 0.661 µM
[2]
  EC50: 0.833 µM
[3]
  EC50: 0.764 µM
W2
  EC50: 172 nM
[4]
  EC50: 0.648 µM

## CN(C)CCCNCc1ccc(-c2ccc(Cl)c(Cl)c2)o1 [MMV673964]
[1]
  EC50: 0.756 µM
[2]
  EC50: 0.163 µM
[3]
  EC50: 1.33 µM
W2
  EC50: 561 nM
[4]
  EC50: 1.05 µM

## O=C(Nc1ccccc1O)c1ccc(Oc2cccc(C(=O)Nc3ccccc3O)c2)cc1 [MMV665888]
[1]
  EC50: 0.812 µM
[2]
  EC50: 1.05 µM
[3]
  EC50: 0.67 µM
W2
  EC50: 515 nM
[4]
  EC50: 0.972 µM

## c1cncc(-c2cc(N3CCC(CN4CCOCC4)CC3)nc(-c3ccncc3)n2)c1 [MMV668399]
[1]
  EC50: 0.652 µM
[2]
  EC50: 0.332 µM
[3]
  EC50: 0.827 µM
W2
  EC50: 164 nM
[4]
  EC50: 0.938 µM

## CCCCCCCN(Cc1ccc(OC(C)(C)C(=O)OCC)cc1)C(=O)Nc1ccc(Cl)cc1OCC [MMV021735]
[1]
  EC50: 0.773 µM
[2]
  EC50: 0.056 µM
[3]
  EC50: 1.08 µM
W2
  EC50: 361 nM
[4]
  EC50: 1.78 µM
